Results taken from US20050267182A1, “Urea derivatives as FLT-3 modulators” (Ambit Biosciences Corporation, priority 2003, published 2005).

What was measured:
MV4,11 cells = assay: FLT3 assay using MV4,11 cells (cellular proliferation, MTS); assay type: cell-based, human; details: cell assay code CS0001
Method in brief: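 MV4,11 AML cells, […] switch to DMEM/10% FBS overnight, plated at 10,000 cells/well and exposed to serially diluted compounds in duplicate for 3 days at 37° C., 5% CO2. Proliferation read by MTS added for 2 h.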

CS0005 = assay: Cell Assay: CS0005; assay type: cell-based; details: cell assay code CS0005
FLT3 = target: T1, FLT3 (Homo sapiens, UniProt P36888); assay: Binding constant (Kd) measurement, phage-displayed kinase competition binding assay; details: for Binding Assay: FLT3(DKIN): FLT3(DKIN) construct; for Binding Assay: FLT3(JMminus): FLT3(JMminus) construct
T1 construct: FLT3(DKIN); made in house
T1 sequence (P36888 610-943 limits assumed): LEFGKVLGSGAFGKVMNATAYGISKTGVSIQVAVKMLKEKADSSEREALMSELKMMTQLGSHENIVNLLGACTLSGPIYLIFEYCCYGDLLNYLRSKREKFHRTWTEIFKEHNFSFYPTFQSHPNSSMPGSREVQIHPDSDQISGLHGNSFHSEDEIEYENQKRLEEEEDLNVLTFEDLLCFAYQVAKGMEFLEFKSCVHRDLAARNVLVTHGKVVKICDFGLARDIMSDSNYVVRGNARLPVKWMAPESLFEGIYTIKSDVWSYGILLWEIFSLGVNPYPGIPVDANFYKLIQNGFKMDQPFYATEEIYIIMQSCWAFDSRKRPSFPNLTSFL
Description: Binding Constant (Kd) Measurements for Small-Molecule-Kinase Interactions
The term “ND” represents non-determined values.

CS0002 = assay: Cell Assay: CS0002; assay type: cell-based; details: cell assay code CS0002

Row | SMILES | Cell Assay: CS0001:IC50 (MV4,11 cells) | Cell Assay: CS0005:IC50 (CS0005) | Binding Assay: FLT3(DKIN) (FLT3) | Cell Assay: CS0002:IC50 (CS0002) | Binding Assay: FLT3(JMminus) (FLT3) | IC50 (CS0002) [µM]
1 | CC(C)(C)c1cc(NC(=O)Nc2ccc(OCc3cccc(F)c3)cc2)no1 [Compound G14] | + + + + | + + + | + + + + |  |  | 
2 | CC(C)(C)c1cc(NC(=O)Nc2ccc(CCc3ccccc3)cc2)no1 [Compound A15] | + + + + | + + + | + + + + | + + |  | 
3 | CC(C)(C)c1cc(NC(=O)Nc2ccc(NC(=O)c3cn4c(n3)sc3ccccc34)cc2)no1 [Compound N73] | + + + + | + + + + |  | + + + | + + + + | 
4 | CC(C)(C)c1cc(NC(=O)Nc2ccc(NC(=O)c3cscn3)cc2)no1 [Compound N57] | + + + + | + + + + | + + + + |  |  | > 10
5 | CC(C)(C)c1cc(NC(=O)Nc2ccc(NC(=O)c3cccc(O)n3)cc2)no1 [Compound N131] | + + + + | + + + | + + + + |  |  | > 10
6 | COc1cc2ncnc(Nc3ccc(NC(=O)Nc4cc(C(C)(C)C)on4)cc3)c2cc1OC [Compound O5] | + + + + | + + + + | + + + + | + + |  | 
7 | CC(C)(C)c1cc(NC(=O)Nc2ccc(OCC3CC3)cc2)no1 [Compound G37] | + + + + | + + + | + + + + | + + |  | 
8 | Cc1nn(C)c(Cl)c1C(=O)Nc1ccc(NC(=O)Nc2cc(C(C)(C)C)on2)cc1 [Compound N116] | + + + + | + + + + | + + + + | + + |  | 
9 | Cn1nc(C(C)(C)C)cc1C(=O)Nc1ccc(NC(=O)Nc2cc(C(C)(C)C)on2)cc1 [Compound N10] | + + + | + + + | + + + + |  |  | 
10 | CC(C)(C)c1cc(NC(=O)Nc2ccc(NC(=O)c3ccc(Cl)cc3)cc2)no1 [Compound N26] | + + | + + + | + + |  |  | 
11 | CC(C)(C)c1cc(NC(=O)Nc2ccc(OCc3cc(F)cc(F)c3)cc2)no1 [Compound G16] | + + + + | + + + | + + + + | + + |  | 
12 | CC(C)(C)c1cc(NC(=O)Nc2ccc(NC(=O)c3cn4cc(Cl)ccc4n3)cc2)no1 [Compound N3] | + + + + | + + + + | + + + + | + + |  | 
13 | Cc1cc(C)nc(N(C)c2ccc(C(=O)Nc3ccc(NC(=O)Nc4cc(C(C)(C)C)on4)cc3)cc2)n1 [Compound N50] | + + + + | + + + | + + + + | + + |  | 
14 | CC(C)(C)c1cc(NC(=O)Nc2ccc(NC(=O)c3cc4cc(Br)ccc4s3)cc2)no1 [Compound N126] | + + + + | + + + + | + + + + | + + + |  | 
15 | COc1cc(C(=O)Nc2ccc(NC(=O)Nc3cc(C(C)(C)C)on3)cc2)nc(OC)n1 [Compound N162] | + + + + | + + + + |  | + + | + + + + | 
16 | CC(C)(C)c1cc(NC(=O)Nc2ccc(NC(=O)c3cc4ccccc4cn3)cc2)no1 [Compound N106] |  | + + + + |  |  |  | > 10
17 | CC(C)(C)c1cc(NC(=O)Nc2ccc(NC(=O)c3nccnc3C(N)=O)cc2)no1 [Compound N138] | + + |  | + + + + |  |  | > 10

Row | SMILES | Cell Assay: CS0001:IC50 (MV4,11 cells) | Cell Assay: CS0005:IC50 (CS0005) | Binding Assay: FLT3(DKIN) (FLT3) | Cell Assay: CS0002:IC50 (CS0002) | Binding Assay: FLT3(JMminus) (FLT3) | IC50 (CS0002) [µM]
18 | CC(C)(C)c1cc(NC(=O)Nc2ccc3c(c2)OCO3)no1 [Compound A56] | + + + |  |  |  | + + + | > 10
19 | CCc1ccc(C(=O)Nc2ccc(NC(=O)Nc3cc(C(C)(C)C)on3)cc2)cc1 [Compound N32] | + + + |  | + + + + |  |  | > 10
20 | CC(C)(C)c1cc(NC(=O)Nc2ccc(C(=O)/C=C/c3ccncc3)cc2)no1 | + + + |  |  |  | + + + + | > 10
21 | CC(C)(C)c1cc(NC(=O)Nc2ccc([N+](=O)[O-])cc2)no1 [Compound A21] | + + + |  |  | + + | + + + | 
22 | CC(C)(C)c1cc(NC(=O)Nc2ccc(OCc3cccc(Cl)c3)cc2)no1 [Compound G11] | + + + + | + + + | + + + + |  |  | 
23 | CCOC(=O)c1cccc(C(=O)Nc2ccc(NC(=O)Nc3cc(C(C)(C)C)on3)cc2)n1 [Compound N164] | + + + + |  |  | + + | + + + + | 
24 | Cc1nc(-c2ccc(Cl)cc2)sc1C(=O)Nc1ccc(NC(=O)Nc2cc(C(C)(C)C)on2)cc1 [Compound N184] | + + + + |  |  | + + | + + + + | 
25 | Cn1nc(C(F)(F)F)c(C(=O)Nc2ccc(NC(=O)Nc3cc(C(C)(C)C)on3)cc2)c1Cl [Compound N68] | + + + |  | + + + + | + + + |  | 
26 | Cc1nc(-c2cccnc2)sc1C(=O)Nc1ccc(NC(=O)Nc2cc(C(C)C)on2)cc1 [Compound N48] | + + + + |  | + + + + | + + |  | 
27 | Cc1ccc(-c2nc(C(=O)Nc3ccc(NC(=O)Nc4cc(C(C)(C)C)on4)cc3)cs2)cc1 [Compound N178] | + + + |  |  | + + | + + + + | 
28 | CC(C)(C)c1cc(NC(=O)Nc2ccc(OCc3ccccc3)cc2)no1 [Compound G31] | + + + + | + + + | + + + + |  |  | 
29 | CC(C)(C)c1cc(NC(=O)Nc2ccc(OCc3ccc(-c4ccccc4)cc3)cc2)no1 [Compound G56] | + + + + | + + + + | + + + + |  |  | 
30 | CC(C)c1cc(NC(=O)Nc2ccc(NC(=O)C3CCN(c4ncc(C(F)(F)F)cc4Cl)CC3)cc2)no1 [Compound N59] | + + + + |  | + + + |  |  | > 10
31 | CC(C)(C)c1cc(NC(=O)Nc2ccc(NC(=O)c3ccc4ccccc4c3)cc2)no1 [Compound N28] | + + + + | + + + + | + + + + |  |  | 
32 | CC(C)(C)c1cc(NC(=O)Nc2ccc(N3C(=O)c4ccccc4C3=O)cc2)no1 [Compound A57] | + + + + |  |  |  | + + + | > 10
33 | CC(C)(C)c1cc(NC(=O)Nc2ccc(NC(=O)c3cc4cc(Br)ccc4s3)cc2)no1 [Compound N17] | + + + + |  | + + + + | + + |  | 
34 | CC(C)(C)c1cc(NC(=O)Nc2ccc(NC(=O)c3ccccc3)cc2)no1 [Compound N34] | + + + + | + + + + | + + + + |  |  | 
